The text below walks through data of patent publication US20060079510A1, “Use of PARP-1 inhibitors for protecting tumorcidal lymphocytes from apoptosis” (priority 2004, published 2006).

Entries after “also recorded” stand apart in the source; their conditions may differ.

The subject of data set [1] is AML. In words: Treatment of subjects with AML in remission (Example 1). Type of data set: in vivo, human. The conditions noted are these: 3-aminobenzamide s.c. (50 mg/day) with histamine dihydrochloride, IL-2, cytarabine and thioguanine, 21-day cycles. How it is done: Subjects with AML in a first, second, subsequent or complete remission are treated in 21-day courses with IL-2 (35-50 μg (equivalent to 6.3-9×10^5 IU) subcutaneously (s.c.). twice daily), repeated with three to six-week intermissions and continued until relapse. In cycle #1, patients receive three weeks of low dose chemotherapy consisting of 16 mg/m^2/day cytarabine, and 40 mg/day thioguanine. Concomitantly, patients are injected subcutaneously with an effective amount of a pharmaceutically acceptable form of a PARP-1 inhibitor, 3-aminobenzamide. Additionally, the patients are administered an effective amount of a pharmaceutically acceptable form of histamine dihydrochloride to boost circulating histamine to a beneficial level twice daily (above 0.2 μmole/L). Histamine levels can be continually boosted to beneficial levels by administering histamine dihydrochloride by injection at 0.2 to 2.0 mg or 3-10 μg/kg twice daily in a pharmaceutically acceptable form of a ROM inhibitory compound during the IL-2 treatment. Thereafter, the subjects are allowed to rest for three to six weeks. After the rest period at the end of the first cycle (cycle #1), the second cycle (cycle #2) is initiated. […]

Data set [2] deals with neoplastic disease and/or viral infection. In words: Treatment of subjects with neoplastic disease and/or viral infection (Example 4). Type of data set: in vivo, human. The conditions noted are these: CEP-6800 250 mg/day with IL-2, interferon-α and histamine, repeated every 4-6 weeks. The protocol: Subjects in need of enhanced cytotoxic lymphocyte activity, because of a neoplastic disease, and/or a viral infection such as hepatitis B (HBV), hepatitis C(HCV), human immunodeficiency virus (HIV), human papilloma virus (HPV) or herpes simplex virus (HSV) type 1 or 2, or other viral infections, are administered 250 mg/day of CEP-6800, a PARP-1 inhibitor. Additionally, subjects are administered human recombinant IL-2 (Proleukin®, Eurocetus) by subcutaneous injection or by continuous infusion of 27 μg/kg/day on days 1-5 and 8-12. The subjects also receive a daily dose of 6×10^6 U interferon-α administered by a suitable route, such as subcutaneous injection. This treatment also includes administering 0.2 to 2.0 mg or 3-10 μg/kg of histamine injected 1, 2, or more times per day in conjunction with the administration of IL-2 and/or interferon-α.
The above procedure is repeated every 4-6 weeks until an objective regression of the tumor is observed, or until improvement in the viral infection occurs. The therapy can be continued even after a first, second, or subsequent complete remission has been observed. In patients with complete responses, the therapy can be given with longer intervals between cycles. […]

For data set [3], the system named is peripheral blood lymphocytes. In words: Oxidant-induced cell death in lymphocytes incubated with mononuclear phagocytes or hydrogen peroxide, flow cytometry. As to conditions: for protection of lymphocytes from phagocyte-induced cell death (FIG. 1): overnight with autologous mononuclear phagocytes, catalase 200 U/ml, histamine, DPI 3 μM, p<0.001, n=4; for protection of lymphocytes from phagocyte- or hydrogen peroxide-induced (oxidant/ROS-induced) cell death / apoptosis: pretreatment, PJ34 250 nM, DPQ 3 μM, Z-VAD.fmk 100 μM, overnight incubation with phagocytes or H2O2. Type of data set: cell-based, human. The protocol: Peripheral venous blood was obtained as freshly prepared leukopacks from healthy blood donors at the Blood Centre, Sahlgren's Hospital, Göteborg, Sweden, to study the activation characteristics of cytotoxic lymphocytes in the presence and absence of MO, and ROM inhibitors. The blood (65 ml) was mixed with 92.5 ml Iscove's medium, 35 ml 6% Dextran (Kabi Pharmacia, Stockholm, Sweden) and 7.5 ml acid citrate dextrose (ACD) (Baxter, Deerfield, Ill.). After incubation for 15 minutes at room temperature, the supernatant was carefully layered onto Ficoll-Hypaque (Lymphoprep, Myegaard, Norway). Mononuclear cells (MNC) were collected at the interface after centrifugation at 380 g for 15 minutes at room temperature, washed twice in PBS and resuspended in Iscove's medium supplemented with 10% human AB^+ serum. During all further separation of cells, the cell suspensions were kept in siliconized test tubes (Vacuette, Greiner, Stockholm).
The MNC were further separated into lymphocyte and monocyte (MO) populations using the counter-current centrifugal elutriation (CCE) technique originally described by Yasaka and co-workers (Yasaka, T. et al., J. Immunol., 127:1515) with modifications as described in Hansson, M., et al. (J. Immunol., 156: 42 (1996); hereby incorporated by reference). Briefly, the sedimentation rate of cells in a spinning rotor was balanced by a counter-directed flow through the chamber. By slowly increasing the flow rate, fractions of cells of well-defined sizes were collected. The MNC were resuspended in elutration buffer containing 0.5% BSA (ICN Biomedicals Inc., Aurora, Ohio) and 0.1% EDTA (VWR, Göteborg, Sweden) in buffered NaCl and fed into a Beckman J2-21 ultracentrifuge with a JE-6B rotor (Bechman Coulter Inc., Fullerton, Calif.) at 2100 rpm. A fraction with >90% MO was obtained at a flow rate of 19 ml/min. A lymphocyte fraction enriched for NK-cells (CD3^−/56^+ phenotype) and T-cells (CD3^+/56^−) was recovered at flow rates of 14-15 ml/min. This fraction contained <3% MO and consisted of CD3ε^−/56^+ NK-cells (45-50%), CD3ε^+/56^− T-cells (35-40%), CD3ε^−/56^− cells (5-10%), and CD3ε^+/56^+ cells (1-5%), as judged by flow cytometry. In some experiments, dynabeads (Dynal A/S, Oslo, Norway) coated with anti-CD56 were used to obtain purified lymphocyte preparations of T-cells, as described in detail by Hansson, M., et al., incorporated above.
Briefly, lymphocytes were incubated overnight with autologous mononuclear phagocytes in the presence or absence of catalase (200 U/ml), histamine ([…]) or DPI (3 μM).
Briefly, lymphocytes, pretreated with PJ34 (250 ηM), Z-VAD.fmk (100 μM) or medium, were subjected to mononuclear phagocytes at different Mo/Ly ratios (FIG. 5A) or to different concentrations of H2O2 (FIG. 5C). FIGS. 5A-5D illustrate that PJ34 protected lymphocytes from cell death induced by phagocytes ([…], ratio 1:1, p<0.05) and hydrogen peroxide (FIGS. 5C and 5D, 250 μM, p<0.001).

Data set [4] relates to tumoricidal lymphocytes. In words: Tumor-killing function of tumoricidal lymphocytes after phagocyte or hydrogen peroxide exposure. Type of data set: cell-based, human. The conditions noted are these: PJ34 250 nM or DPQ 3 μM. From the text: As detailed above, a significant part of the dysfunction of tumor-killing lymphocytes at the site of malignant tumor growth has been attributed to inhibitory signals from tumor-infiltrating or tumor-adjacent phagocytes. […] However, the molecular events underlying phagocyte-induced lymphocyte apoptosis are not fully understood. The role of two enzyme systems responsible for induction and execution of apoptosis, caspases and the poly(ADP-ribose) polymerase (PARP) were investigated. Human tumoricidal lymphocytes were incubated with autologous mononuclear phagocytes or with exogenously added hydrogen peroxide, and assayed for apoptotic features at various time points. […] It is therefore believed that PARP-dependent cell death may be critically involved in phagocyte-dependent, oxygen free radical-induced cell death.

For data set [5], the system named is NK cells. The conditions noted are these: H2-receptor antagonist or agonist; cited from earlier work.

For the molecule `NC(=O)c1cccc(N)c1` [3-aminobenzamide], the “clinical outcome in AML” value in data set [1] is “reduction in cancer”.
Turning to `NCc1ccc2[nH]c3c4c(c5c(c3c2c1)C(=O)NC5=O)CCC4` [CEP-6800], the “viral infection or tumor mass” value in data set [2] is “reduction in viral infection or tumor mass”.
As for `c1ccc([I+]c2ccccc2)cc1` [DPI, diphenyliodonium], the “protection of lymphocytes from phagocyte-induced cell death (FIG. 1)” value in data set [3] is “fully protected”.
Take `O=C1NCCc2c(OCCCCN3CCCCC3)cccc21` [DPQ]: the “restoration of tumor-killing function” value in data set [4] is given as “restored”. Also, the “protection of lymphocytes from phagocyte- or hydrogen peroxide-induced (oxidant/ROS-induced) cell death / apoptosis” value in data set [3] was “completely protected; also recorded: resisted the oxidative stress”.
Consider `CN(C)CCCSC(=N)N` [dimaprit], for which the “effect of histamine on granulocyte mediated suppression of antibody dependent cytotoxicity of NK cells” value in data set [5] is on record as “mimicked”.
As for `CNC(=C[N+](=O)[O-])NCCSCc1ccc(CN(C)C)o1` [ranitidine], the “effect of histamine on granulocyte mediated suppression of antibody dependent cytotoxicity of NK cells” value in data set [5] is listed as “blocked”.
Take Q-VD.OPh: the “protection of lymphocytes from phagocyte- or hydrogen peroxide-induced (oxidant/ROS-induced) cell death / apoptosis” value in data set [3] is “failed to protect”.

B1: catalase: H2O2 scavenger (Boehringer-Mannheim) (protein, UniProt P00432 2-527, looked up)
Catalase: ADNRDPASDQMKHWKEQRAAQKPDVLTTGGGNPVGDKLNSLTVGPRGPLLVQDVVFTDEMAHFDRERIPERVVHAKGAGAFGYFEVTHDITRYSKAKVFEHIGKRTPIAVRFSTVAGESGSADTVRDPRGFAVKFYTEDGNWDLVGNNTPIFFIRDALLFPSFIHSQKRNPQTHLKDPDMVWDFWSLRPESLHQVSFLFSDRGIPDGHRHMNGYGSHTFKLVNANGEAVYCKFHYKTDQGIKNLSVEDAARLAHEDPDYGLRDLFNAIATGNYPSWTLYIQVMTFSEAEIFPFNPFDLTKVWPHGDYPLIPVGKLVLNRNPVNYFAEVEQLAFDPSNMPPGIEPSPDKMLQGRLFAYPDTHRHRLGPNYLQIPVNCPYRARVANYQRDGPMCMMDNQGGAPNYYPNSFSAPEHQPSALEHRTHFSGDVQRFNSANDDNVTQVRTFYLKVLNEEQRKRLCENIAGHLKDAQLFIQKKAVKNFSDVHPEYGSRIQALLDKYNEEKPKNAVHTYVQHGSHLSAREKANL
B1: in data set [3], the “protection of lymphocytes from phagocyte-induced cell death (FIG. 1)” value is recorded as “fully protected”.
